Common to all, as to format: cell-based
Assay [1] addresses T1, 17β-hydroxysteroid dehydrogenase type 1 (17β-HSD type 1) (Homo sapiens, UniProt P14061).
T1 construct: expressed in transfected cells; host or cells: MCF-7
T1 sequence (P14061 1-328): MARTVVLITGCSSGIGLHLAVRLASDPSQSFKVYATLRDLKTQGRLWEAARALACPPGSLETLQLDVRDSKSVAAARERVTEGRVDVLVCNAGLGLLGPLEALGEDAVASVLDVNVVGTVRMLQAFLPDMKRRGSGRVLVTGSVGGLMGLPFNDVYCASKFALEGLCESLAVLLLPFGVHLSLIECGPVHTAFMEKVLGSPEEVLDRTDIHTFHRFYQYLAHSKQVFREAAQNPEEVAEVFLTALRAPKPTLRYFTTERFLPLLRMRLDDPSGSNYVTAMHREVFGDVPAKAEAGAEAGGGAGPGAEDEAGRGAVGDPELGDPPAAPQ
Nature of the assay: Inhibition of 17β-HSD type 1 in MCF-7 cells stably expressing the isoenzyme (tritium labeled estrone conversion, HPLC). The settings on record: MCF7, MCF-7 cells expressing 17β-HSD type 1, 2 nM tritium labeled estrone; for inhibition at 1 µM: 1 μM test compound, read-out: % Inhibition HSD1 1 μM; for inhibition at 10 µM: 10 μM test compound, read-out: % Inhibition HSD1 10 μM. An excerpt:
(§1) Biological Testing Materials and Methods 1. Inhibition of the 17β-hydroxysteroid dehydrocienase type 1, type 2 and type 3 enzyme
(§2) The compounds were screened in respect of 17β-HSD enzyme activity in vitro on established MCF-7 cell lines, each stably expressing one of the respective 17β-HSD isoenzymes. The interconversion of substrate by each isoenzyme and the 17β-HSD inhibiting activity of chemical compounds in these cell lines were detected by HPLC system.
(§3) Varying amounts of the test compounds were incubated in the growth medium of the 17β-HSD expressing cells together tritium labeled substrate (2 nM estrone for 17β-HSD type 1; 2 nM estradiol for 17β-HSD type 2; and 2 nM androstenedione for 17β-HSD type 3). The medium samples were removed after exact incubation time and the reaction is stopped by trichloroacetic acid (TCA). The samples were analyzed by HPLC-coupled flow scintillation analysis.
(§4) For each enzyme type, the HSD-inhibiting activity of an individual test compound was calculated by comparing the conversion of a control sample without any test compound (referred to as “Negative Control”) to the (reduced) conversion of the test sample containing the particular compound to be tested (referred to as “Test Sample”).
(§5) Two concentrations of each compound were used. The number of the compound refers to the numbers indicated in the Experimental Section.

The target of assay [2] is T2, 17β-hydroxysteroid dehydrogenase type 2 (17β-HSD type 2) (Homo sapiens, UniProt P37059).
T2 construct: expressed in transfected cells; host or cells: MCF-7
T2 sequence (P37059 1-387): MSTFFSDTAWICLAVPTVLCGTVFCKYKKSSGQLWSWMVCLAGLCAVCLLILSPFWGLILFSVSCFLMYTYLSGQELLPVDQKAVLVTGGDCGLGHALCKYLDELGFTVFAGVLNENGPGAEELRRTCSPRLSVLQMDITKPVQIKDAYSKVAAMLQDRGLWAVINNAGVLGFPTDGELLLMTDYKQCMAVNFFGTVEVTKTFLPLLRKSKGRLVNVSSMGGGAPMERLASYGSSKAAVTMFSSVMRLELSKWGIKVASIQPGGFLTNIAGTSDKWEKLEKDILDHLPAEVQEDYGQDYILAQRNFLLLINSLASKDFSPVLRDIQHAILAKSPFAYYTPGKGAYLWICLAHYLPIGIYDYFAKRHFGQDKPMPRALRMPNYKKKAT
Nature of the assay: Inhibition of 17β-HSD type 2 in MCF-7 cells stably expressing the isoenzyme (tritium labeled estradiol conversion, HPLC). The note with it: MCF7, MCF-7 cells expressing 17β-HSD type 2, 2 nM tritium labeled estradiol; for inhibition at 1 µM: 1 μM test compound, read-out: % Inhibition HSD2 1 μM; for inhibition at 10 µM: 10 μM test compound, read-out: % Inhibition HSD2 10 μM.
From the text: as §1, §2, §3, §4, §5

Assay [3] deals with T3, 17β-hydroxysteroid dehydrogenase type 3 (17β-HSD type 3) (Homo sapiens, UniProt P37058).
T3 construct: expressed in transfected cells; host or cells: MCF-7
T3 sequence (P37058 1-310): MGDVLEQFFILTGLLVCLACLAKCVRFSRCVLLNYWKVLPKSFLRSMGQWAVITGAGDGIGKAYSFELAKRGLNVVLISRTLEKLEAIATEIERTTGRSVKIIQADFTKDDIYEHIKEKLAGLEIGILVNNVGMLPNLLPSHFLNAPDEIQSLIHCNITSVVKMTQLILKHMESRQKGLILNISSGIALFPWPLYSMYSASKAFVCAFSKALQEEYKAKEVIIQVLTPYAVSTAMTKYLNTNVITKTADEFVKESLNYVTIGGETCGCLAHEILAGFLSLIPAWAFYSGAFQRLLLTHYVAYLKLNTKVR
Nature of the assay: Inhibition of 17β-HSD type 3 in MCF-7 cells stably expressing the isoenzyme (tritium labeled androstenedione conversion, HPLC). The note with it: MCF7, MCF-7 cells expressing 17β-HSD type 3, 2 nM tritium labeled androstenedione; for inhibition at 1 µM: 1 μM test compound, read-out: % Inhibition HSD3 1 μM; for inhibition at 10 µM: 10 μM test compound, read-out: % Inhibition HSD3 10 μM.
From the text: as §1, §2, §3, §4, §5

Data on 14 compounds can be found in patent US7524853B2 (Solvay Pharmaceuticals B.V., priority 2003, dated 2009).

For the compound `COc1cc(-c2nc3sc4c(c3c(=O)n2-c2ccccc2)CCCC4=O)cc(OC)c1OC` [No. 11, 3-Phenyl-2-(3,4,5-trimethoxyphenyl)-6,7-dihydro-3H,5H-benzo[4,5]thieno[2,3-d]pyrimidine-4,8-dione], the inhibition at 1 µM in assay [1] is 14.2%; in assay [2], -5.3%; in assay [3], -5.6%. The figures for the inhibition at 10 µM in assay [1], in assay [2] and in assay [3] were 27.7%, 12.3% and 12.8%, respectively.
For `COc1ccc(-c2nc3sc4c(c3c(=O)n2Cc2ccccc2)CCCC4)cc1` [No. 12, 3-Benzyl-2-(p-methoxyphenyl)-5,6,7,8-tetrahydro-3H-benzo[4,5]thieno[2,3-d]pyrimidin-4-one], the results for the inhibition at 1 µM in assay [1], in assay [2] and in assay [3] were 6.3%, 4.2% and 3.1%, respectively. The inhibition at 10 µM in assay [1] amounted to 34.5%; in assay [2] it was 12.3%; in assay [3], 55.5%.
Regarding `COc1ccc(-c2nc3sc4c(c3c(=O)n2Cc2ccccc2)CCCC4=O)cc1` [No. 13, 3-Benzyl-2-(p-methoxyphenyl)-6,7-dihydro-3H,5H-benzo[4,5]thieno[2,3-d]pyrimidine-4,8-dione], the inhibition at 1 µM was 28% in assay [1], 19.5% in assay [2] and 3% in assay [3]. Further, the inhibition at 10 µM in assay [1] is 43.6%; in assay [2], 19.9%; in assay [3], 59.1%.
Take `COc1ccc(-c2nc3sc4c(c3c(=O)n2Cc2ccccc2)CCC(C=O)=C4Cl)cc1` [No. 14]: the values for the inhibition at 1 µM in assay [1], in assay [2] and in assay [3] were 8.6%, 0.5% and 22.7%, respectively. Besides, the inhibition at 10 µM in assay [1] is 29.7%; in assay [2], 18.8%; in assay [3], 80.8%.
With `CCOC(=O)C1=Cc2sc3nc(-c4ccc(OC)cc4)n(Cc4ccccc4)c(=O)c3c2CC1` [No. 15, 3-Benzyl-2-(p-methoxyphenyl)-4-oxo-3,4,5,6-tetrahydro-benzo[4,5]thieno[2,3-d]pyrimidine-7-carboxylic acid ethyl ester], the inhibition at 1 µM in assay [1] was -9.9%; in assay [2], -5.5%; in assay [3], 18.5%. In addition, the figures for the inhibition at 10 µM in assay [1], in assay [2] and in assay [3] were -6.5%, 7.3% and 61.2%, respectively.
Regarding `CCSC1=C(C=O)CCc2c1sc1nc(-c3ccc(OC)cc3)n(Cc3ccccc3)c(=O)c21` [No. 16, 3-Benzyl-8-ethylsulfanyl-2-(p-methoxyphenyl)-4-oxo-3,4,5,6-tetrahydro-benzo[4,5]thieno[2,3-d]pyrimidine-7-carbaldehyde], the inhibition at 1 µM in assay [1] was determined as 1.7%; in assay [2], 5%; in assay [3], 75.7%. Besides, the inhibition at 10 µM was 33.5% in assay [1], 20.1% in assay [2] and 100% in assay [3].
As to `COc1ccc(-c2nc3sc4cc(C=O)ccc4c3c(=O)n2Cc2ccccc2)cc1` [No. 17, 3-Benzyl-2-(p-methoxyphenyl)-4-oxo-3,4-dihydro-benzo[4,5]thieno[2,3-d]pyrimidine-7-carbaldehyde], the inhibition at 1 µM in assay [1] is 18.1%; in assay [2], -5.4%; in assay [3] it was 43.5%. In addition, the inhibition at 10 µM was 48.3% in assay [1], 20.9% in assay [2] and 100% in assay [3].
On to `CCSc1c(C=O)ccc2c1sc1nc(-c3ccc(OC)cc3)n(Cc3ccccc3)c(=O)c12` [No. 18, 3-Benzyl-8-ethylsulfanyl-2-(p-methoxyphenyl)-4-oxo-3,4-dihydro-benzo[4,5]thieno[2,3-d]pyrimidine-7-carbaldehyde], for which the inhibition at 1 µM came to 12.1% in assay [1], 0% in assay [2] and 66.1% in assay [3]. Besides, the inhibition at 10 µM was found to be 25.9% in assay [1], 15.1% in assay [2] and 100% in assay [3].
Turning to `CCSC1=C(CO)CCc2c1sc1nc(-c3ccc(OC)cc3)n(Cc3ccccc3)c(=O)c21` [No. 19], the values for the inhibition at 1 µM in assay [1], in assay [2] and in assay [3] were 10.2%, 4.9% and 32.7%, respectively. For the same compound, the inhibition at 10 µM was found to be 32% in assay [1], 21.1% in assay [2] and 100% in assay [3].
`COc1ccc(-c2nc3sc4c(Oc5ccccc5)c(CO)ccc4c3c(=O)n2Cc2ccccc2)cc1` [No. 20, 3-Benzyl-7-hydroxymethyl-2-(p-methoxyphenyl)-8-phenoxy-3H-benzo[4,5]thieno[2,3-d]pyrimidin-4-one]: the inhibition at 1 µM in assay [1] is 26%; in assay [2], -1.7%; in assay [3], 9.9%. Besides, the inhibition at 10 µM in assay [1] was 37.5%; in assay [2], 16.6%; in assay [3], 61.1%.
In the case of `COc1ccc(-c2nc3sc4c(Oc5ccccc5)c(C)ccc4c3c(=O)n2Cc2ccccc2)cc1` [No. 21, 3-Benzyl-7-methyl-2-(p-methoxyphenyl)-8-phenoxy-3H-benzo[4,5]thieno[2,3-d]pyrimidin-4-one], the inhibition at 1 µM in assay [1] is -1.8%; in assay [2], -0.8%; in assay [3] it was -4.8%. The inhibition at 10 µM is -4.4% in assay [1], 12.7% in assay [2] and 6.4% in assay [3].
For `COc1ccc(-c2nc3sc4c(c3c(=O)n2-c2ccccc2)CCCC4)cc1` [No. 22, 3-Phenyl-2-(p-methoxyphenyl)-5,6,7,8-tetrahydro-3H-benzo[4,5]thieno[2,3-d]pyrimidin-4-one], the inhibition at 1 µM is 26% in assay [1], 13% in assay [2] and -1.8% in assay [3]. The inhibition at 10 µM in assay [1] is 38.1%; in assay [2] it was 14.9%; in assay [3] it was 28.6%.
Consider `COc1ccc(-c2nc3sc4c(c3c(=O)n2-c2ccccc2)CCCC4=O)cc1` [No. 23, 3-Phenyl-2-(p-methoxyphenyl)-6,7-dihydro-3H,5H-benzo[4,5]thieno[2,3-d]pyrimidin-4,8-dione], for which the inhibition at 1 µM in assay [1] amounted to 18.6%; in assay [2] it was 6.8%; in assay [3], 6.8%. Further, the inhibition at 10 µM in assay [1] was determined as 45.3%; in assay [2], 9.4%; in assay [3] it was 15.4%.
Consider `Cc1nc2sc3c(c2c(=O)n1-c1ccccc1)CCCC3` [No. 24, 2-Methyl-3-phenyl-5,6,7,8-tetrahydro-3H-benzo[4,5]thieno[2,3-d]pyrimidin-4-one], for which the inhibition at 1 µM was -7.5% in assay [1], 4.1% in assay [2] and 17.1% in assay [3]. Moreover, the values for the inhibition at 10 µM in assay [1], in assay [2] and in assay [3] were 15.4%, 9.7% and 30.9%, respectively.

Usually inhibition stands for the relative decrease from the control value, in per cent.
